Source: patent publication US7897568B2, “Compositions for treatment of cancer” (priority 2006, dated 2011)
Where a SMILES comes first, the peptide text is derived from it.

Assays:
[1] = target: SNCG (Homo sapiens, UniProt O76070); assay: Far-UV circular dichroism of SNCG titrated with ANK peptide, calculated secondary structure; parameters: The SNCG coding region was amplified from the human cDNA clone; GST (N, cleaved yes); made in house; host or cells: Escherichia coli BL21 (DE3)
Method: FIGS. 1B and 1C provide far-UV circular dichroism (CD) spectra of SNCG (10 μM) with titration of ANK peptide […] (SEQ ID NO:1) at concentrations of 2 μM, 12 μM and 24 μM (FIG. 1B) and 25 μM, 50 μM and 100 μM (FIG. 1C). […] Spectra patterns correspond to random coil structures.
Titration of SNCG with the ANK peptide also gave rise to far-UV spectra characteristic of an unfolded protein (FIG. 1B) and produced no significant changes in calculated secondary structure.
The SNCG-ANK interaction was monitored using far-UV CD recorded on a rapid-scanning monochromator fitted with a CD module (RSM 1000, Olis Inc., Bogart Ga.). Samples containing 0.145 mg/ml SNCG were dialyzed into 5 mM sodium phosphate buffer, pH 7.0 for data acquisition. Spectra were averaged from 12 scans recorded at 25° C. The baseline was corrected by subtracting the spectra measured under identical conditions for the remaining buffer after dialysis. Peptide was reconstituted into flow-through buffer after dialysis and used for titration. Molar ellipticity [θ] was calculated according to the formula [θ]=[θ]×100/(nlc), where n represents the number of amino acids in the protein, l represents the path length of the cuvette in centimeters and c represents the concentration in millimolar. Percentage secondary structure was calculated using the web-based program CDNN (Bohm et al. Protein Eng. 1992 5:191-195).

[2] = system: MCF7-Neo cells; assay: Microinjection of ANK peptide then nocodazole, mitotic arrest/apoptosis count; type: cell-based; details: MCF7-Neo5 cells, ANK peptide microinjected, nocodazole treated; versus uninjected
Method: (§1) ANK peptide interference with SNCG-BubR1 association in vivo was examined in a stable breast cancer cell line MCF7 expressing SNCG (MCF7-SNCG) and a control SNCG negative cell line (MCF7-Neo). […] Significant numbers of cells survived after treatment with the ANK peptide by microinjection in both cell lines. After microinjection, cells were treated with 0.5 μM nocodazole for 24 hours and the fraction of mitotically arrested cells was counted.
(§2) MCF7-SNCG and MCF-Neo were grown to 80% confluence, split with trypsin and seeded on a 22 mm glass coverslip treated with human fibronectin ([…]) into 60 mm diameter dishes containing cell maintenance medium for 24 hours and utilized for the experiments. In initial experiments ANK peptide (5, 10 or 100 μM) was microinjected. In all further experiment to date, ANK peptide (10 μM), together with goat IgG (1 mg/ml) and fluoroscein isothiocyanate (FITC, 5 mg/ml; Molecular Probes) into the MCF7-SNCG or MCF7-Neo cells under a 40× magnification of phase contrast microscope (Carl Zeiss Inc.) using a pressure injection system (Femtojet, Eppendorf). To exclude the possibility that microinjection might affect cell cycle and proliferation, MCF7-Neo and MCF7-SNCG were microinjected with goat IgG as a control. Injections were done at a constant flow setup by varying the injection pressure Pc between 40-70 units. The microscope stage was kept at 37° C. using thermal control device (Tempcontrol-37-2 Digital). Approximately 25-30 cells were microinjected in each experiment (n=3). Cells were quickly incubated to revive. […]
(§3) For the immunofluorescence experiments, cells were fixed in 0.5% buffered paraformaldehyde for 8 minutes at room temperature. […] Cells were scored by identifying cells containing Alexa Fluor 488 excited at 488 nm, and the emission measured at 500-535 nm; DAPI was excited at 345 nm and the emission was measured at 445 nm. […] Mitotic index was determined as described by Gupta et al. (Oncogene 2003 22:7593-7599) and Inaba et al. Breast Cancer Res. Treat. […]

[3] = system: MCF7-SNCG cells; assay: as above; type: cell-based; details: ANK peptide microinjected, 0.5 μM nocodazole for 24 hours; versus uninjected
Method: as §1, §2, §3

Sequence of SNCG (O76070 whole entry): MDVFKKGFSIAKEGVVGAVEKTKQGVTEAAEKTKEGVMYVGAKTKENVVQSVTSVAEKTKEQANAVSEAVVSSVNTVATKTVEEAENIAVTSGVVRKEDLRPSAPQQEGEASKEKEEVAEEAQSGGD

CC[C@H](C)[C@H](NC(=O)[C@H](CS)NC(=O)CNC(=O)[C@H](CC(C)C)NC(=O)[C@H](Cc1c[nH]cn1)NC(=O)CNC(=O)[C@H](Cc1c[nH]cn1)NC(=O)[C@H](CCC(N)=O)NC(=O)[C@H](CO)NC(=O)[C@H](C)NC(=O)[C@@H](NC(=O)[C@H](Cc1c[nH]cn1)NC(=O)[C@H](CC(C)C)NC(=O)[C@H](C)NC(=O)[C@H](CO)NC(=O)[C@H](CC(N)=O)NC(=O)CNC(=O)[C@H](CCCCN)NC(C)=O)C(C)C)C(=O)N[C@@H](CCC(N)=O)C(=O)N[C@H](C(=O)N[C@@H](CC(C)C)C(=O)N[C@H](C(=O)N[C@@H](CCCNC(=N)N)C(=O)N[C@@H](Cc1ccc(O)cc1)C(=O)NCC(=O)N[C@@H](C)C(=O)N[C@@H](CC(N)=O)C(=O)N[C@H](C(=O)N[C@H](C(=O)N[C@@H](CCSC)C(=O)N[C@@H](CCC(N)=O)C(=O)N[C@@H](CC(N)=O)C(=O)N[C@@H](Cc1c[nH]cn1)C(=O)NCC(N)=O)[C@@H](C)O)C(C)C)C(C)C)[C@@H](C)O [ANK peptide] (Ac-KGNSALHVASQHGHLGCIQTLVRYGANVTMQNHG-NH2)
Structure (%) Antiparallel ([1]; SNCG + 2.0 μM ANK Peptide): 9.00%
Structure (%) Beta-Turn ([1]; SNCG + 2.0 μM ANK Peptide): 17.6%
Structure (%) Helix ([1]; SNCG + 2.0 μM ANK Peptide): 29.2%
Structure (%) Parallel ([1]; SNCG + 2.0 μM ANK Peptide): 10.3%
Structure (%) Random Coil ([1]; SNCG + 2.0 μM ANK Peptide): 36.0%
Structure (%) Antiparallel ([1]; SNCG + 12 μM ANK Peptide): 8.80%
Structure (%) Beta-Turn ([1]; SNCG + 12 μM ANK Peptide): 17.4%
Structure (%) Helix ([1]; SNCG + 12 μM ANK Peptide): 30.0%
Structure (%) Parallel ([1]; SNCG + 12 μM ANK Peptide): 10.0%
Structure (%) Random Coil ([1]; SNCG + 12 μM ANK Peptide): 35.4%
Structure (%) Antiparallel ([1]; SNCG + 24 μM ANK Peptide): 8.70%
Structure (%) Beta-Turn ([1]; SNCG + 24 μM ANK Peptide): 17.3%
Structure (%) Helix ([1]; SNCG + 24 μM ANK Peptide): 30.4%
Structure (%) Parallel ([1]; SNCG + 24 μM ANK Peptide): 9.90%
Structure (%) Random Coil ([1]; SNCG + 24 μM ANK Peptide): 35.0%
number of cells undergoing mitotic arrest/apoptosis [2]: not significantly affected
level of mitotically arrested cells [3]: significantly (p<0.05) increased
